In assay [1] the test system is co-culture of mouse bone marrow cells and MB 1.8 mouse osteoblasts. As to the kind of experiment: Osteoclastogenesis in murine co-cultures of bone marrow cells and MB 1.8 osteoblasts (TRAP fluorescence or counting of osteoclast-like cells). It counts as cell-based. As to conditions: FIG. 1.
The test system of a further assay is bone marrow cultures. The following applies: cited from earlier work.

The structures appear in SMILES notation.

Take `CC1(O)CCOC(=O)C1` (racemic) [D,L-mevalonic acid lactone]: the “reversal of lovastatin inhibition of osteoclastogenesis (TRAP fluorescence assay)” value in assay [1] (D,L-mevalonic acid lactone 1 mM together with 1 or 10 μM lovastatin, added at days 5 and 6, read on day 7) is recorded as “reversal”.

Turning to `CC[C@H](C)C(=O)O[C@H]1C[C@@H](C)C=C2C=C[C@H](C)[C@H](CC[C@@H]3C[C@@H](O)CC(=O)O3)[C@H]21` [lovastatin], the “inhibition of osteoclastogenesis (tartrate resistant acid phosphatase activity, percent activity relative to no treatment)” value in assay [1] (lovastatin 1 and 10 μM added at days 5 and 6, TRAP activity measured on day 7) was “inhibition of osteoclastogenesis”. As to `C[C@@](O)(CCO)CC(=O)O` [mevalonic acid], in the assay with bone marrow cultures (added to mevastatin), the “effect of added mevalonic acid on the inhibition of osteoclastogenesis by mevastatin” value is recorded as “partially restored”. `CC[C@H](C)C(=O)O[C@H]1CCC=C2C=C[C@H](C)[C@H](CC[C@@H]3C[C@@H](O)CC(=O)O3)[C@H]21` [mevastatin]: the “inhibition of in vitro osteoclastogenesis formation” value in the assay with bone marrow cultures is listed as “inhibit in vitro osteoclastogenesis formation”.

The values are drawn from patent US20010025028A1, “Methods of inhibiting bone resorption” (Merck & Co., Inc., priority 1998, published 2001).
